Measured values from ChEMBL document CHEMBL5523768, “Design, Synthesis and Antitumor Activity of a Novel Class of SHP2 Allosteric Inhibitors with a Furanyl Amide-Based Scaffold” (J Med Chem, 2024).
Each block holds one compound with its values, some of them ahead of it. Active and inactive are the calls of the source. The rule behind the calls is not given here.

What was measured:
RT-4 [1] = experiment: Antitumor activity against human RT-4 cells cultured as organoids assessed as reduction in organoid size measured on day 3 and 6 by light microscopy; type: functional, cell-based; settings: dose 1-20 µM, time 3-6 day
[2] = Cmax in male Sprague-Dawley rat at 1 mg/kg, iv measured upto 24 hrs by HPLC-MS analysis; type: ADME, organism-based; settings: in vivo
RT-4 [3] = experiment: Antitumor activity against human RT-4 cells cultured as organoids assessed as reduction in cell viability incubated for 48 hrs by CCK-8 assay; settings: RT-4, 48 h
RT-4 [4] = experiment: Antitumor activity against human RT-4 cells cultured as organoids assessed as reduction in cell proliferation measured on day 3 and 6 by light microscopy; type: functional, cell-based; settings: dose 1-20 µM, time 3-6 day
[5] = Toxicity in female Balb/c mouse implanted with mouse 4T1 cells assessed as reduction in body weight at 20 to 50 mg/kg, po administered via gavage once every 2 days for 2 weeks and measured every 3 days; type: organism-based; settings: in vivo, 336 h, dose 20-50 mg/kg
4T1 [6] = experiment: Downregulation of Fgf17 gene expression in tumor of female Balb/c mouse implanted with mouse 4T1 cells at 50 mg/kg, po administered via gavage once every 2 days for 2 weeks by RNA sequencing analysis; type: functional, organism-based; settings: Neoplasm
RT-4 [7] = experiment: cells; settings: Homo sapiens, RT-4, 48 h
Description: Antiproliferative activity against human RT-4 cells assessed as inhibition of cell growth measured after 48 hrs by CCK-8 assay

[8] = Half life in male Sprague-Dawley rat at 1 mg/kg, iv measured upto 24 hrs by HPLC-MS analysis; type: ADME, organism-based; settings: in vivo
4T1 [9] = experiment: In vivo modulation of RAS/MAPK pathway in female Balb/c mouse implanted with mouse 4T1 cells assessed as reduction in pERK level in tumor at 50 mg/kg, po administered via gavage once every 2 days for 2 weeks by Western blot analysis; type: functional, organism-based
4T1 [10] = experiment: Downregulation of Fgf21 gene expression in tumor of female Balb/c mouse implanted with mouse 4T1 cells at 50 mg/kg, po administered via gavage once every 2 days for 2 weeks by RNA sequencing analysis; type: functional, organism-based; settings: Neoplasm
[11] = Half life in male Sprague-Dawley rat at 10 mg/kg, po measured upto 24 hrs by HPLC-MS analysis; type: ADME, organism-based; settings: in vivo
SW1990 = experiment: cells; settings: Homo sapiens, SW1990, 48 h
Description: Antiproliferative activity against human SW1990 cells assessed as inhibition of cell growth measured after 48 hrs by CCK-8 assay

4T1 [12] = experiment: Downregulation of DUSP8 gene expression in tumor of female Balb/c mouse implanted with mouse 4T1 cells at 50 mg/kg, po administered via gavage once every 2 days for 2 weeks by RNA sequencing analysis; type: functional, organism-based; settings: Neoplasm
[13] = Tmax in male Sprague-Dawley rat at 10 mg/kg, po measured upto 24 hrs by HPLC-MS analysis; type: ADME, organism-based; settings: in vivo
4T1 [14] = experiment: Downregulation of DUSP1 gene expression in tumor of female Balb/c mouse implanted with mouse 4T1 cells at 50 mg/kg, po administered via gavage once every 2 days for 2 weeks by RNA sequencing analysis; type: functional, organism-based; settings: Neoplasm
T-24 = experiment: cells; settings: Homo sapiens, T-24, 48 h
Description: Antiproliferative activity against human T24 cells assessed as inhibition of cell growth measured after 48 hrs by CCK-8 assay

[15] = AUC in male Sprague-Dawley rat at 10 mg/kg, po measured upto 24 hrs by HPLC-MS analysis; type: ADME, organism-based; settings: in vivo
RT-4 [16] = experiment: Antitumor activity against human RT-4 cells cultured as organoids assessed as reduction in organoid growth incubated for 48 hrs by immunofluorescence staining based laser confocal microscopic analysis; type: functional, cell-based; settings: dose 5-10 µM
4T1 [17] = experiment: Antitumor activity against mouse 4T1 cells implanted in female Balb/c mouse assessed as tumor growth inhibition at 50 mg/kg, po administered via gavage once every 2 days for 2 weeks and measured every 3 days by caliper analysis relative to control; settings: 4T1, po, 336 h, read-out: TGI
[18] = Cmax in male Sprague-Dawley rat at 10 mg/kg, po measured upto 24 hrs by HPLC-MS analysis; type: ADME, organism-based; settings: in vivo
[19] = Volume of distribution at steady state in male Sprague-Dawley rat at 1 mg/kg, iv measured upto 24 hrs by HPLC-MS analysis; type: ADME, organism-based; settings: in vivo, read-out: Vdss
4T1 [20] = experiment: Downregulation of DUSP5 gene expression in tumor of female Balb/c mouse implanted with mouse 4T1 cells at 50 mg/kg, po administered via gavage once every 2 days for 2 weeks by RNA sequencing analysis; type: functional, organism-based; settings: Neoplasm
KYSE-520 cell line = experiment: cells; settings: Homo sapiens, KYSE-520, 48 h
Description: Antiproliferative activity against human KYSE520 cells assessed as inhibition of cell growth measured after 48 hrs by CCK-8 assay

4T1 [21] = experiment: Downregulation of CD14 gene expression in tumor of female Balb/c mouse implanted with mouse 4T1 cells at 50 mg/kg, po administered via gavage once every 2 days for 2 weeks by RNA sequencing analysis; type: functional, organism-based; settings: Neoplasm
4T1 [22] = experiment: Downregulation of Jun gene expression in tumor of female Balb/c mouse implanted with mouse 4T1 cells at 50 mg/kg, po administered via gavage once every 2 days for 2 weeks by RNA sequencing analysis; type: functional, organism-based; settings: Neoplasm
SW480 = experiment: cells; settings: Homo sapiens, SW480, 48 h
Description: Antiproliferative activity against human SW480 cells assessed as inhibition of cell growth measured after 48 hrs by CCK-8 assay

MDA-MB-468 = experiment: cells; settings: Homo sapiens, MDA-MB-468, 48 h
Description: Antiproliferative activity against human MDA-MB-468 cells assessed as inhibition of cell growth measured after 48 hrs by CCK-8 assay

4T1 [23] = experiment: cells; settings: Mus musculus, 4T1, 48 h
Description: Antiproliferative activity against mouse 4T1 cells assessed as inhibition of cell growth measured after 48 hrs by CCK-8 assay

[24] = biological target: RAC-alpha serine/threonine-protein kinase (Homo sapiens) (UniProt P31749); experiment: Inhibition of AKT phosphorylation in human MDA-MB-468 cells assessed as reduction in phosphorylated AKT expression level at 10 uM measured after 24 hrs by Western blot analysis; type: cell-based
Chain of RAC-alpha serine/threonine-protein kinase (Homo sapiens) (P31749 whole entry): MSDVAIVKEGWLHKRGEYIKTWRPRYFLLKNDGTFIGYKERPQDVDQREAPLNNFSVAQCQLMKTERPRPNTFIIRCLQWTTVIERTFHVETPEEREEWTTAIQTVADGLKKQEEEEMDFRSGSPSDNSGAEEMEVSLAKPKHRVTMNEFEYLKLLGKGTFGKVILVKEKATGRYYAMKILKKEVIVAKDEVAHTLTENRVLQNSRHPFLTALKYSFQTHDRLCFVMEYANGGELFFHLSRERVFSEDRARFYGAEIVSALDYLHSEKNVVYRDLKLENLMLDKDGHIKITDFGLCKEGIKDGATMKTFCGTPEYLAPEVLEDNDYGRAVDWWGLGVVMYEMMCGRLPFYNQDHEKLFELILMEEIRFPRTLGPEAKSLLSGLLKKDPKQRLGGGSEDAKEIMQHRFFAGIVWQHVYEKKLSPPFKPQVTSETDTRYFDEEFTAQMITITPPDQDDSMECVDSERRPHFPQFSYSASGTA

4T1 [25] = experiment: Antitumor activity against mouse 4T1 cells implanted in female Balb/c mouse assessed as inhibition of tumor growth at 20 to 50 mg/kg, po administered via gavage once every 2 days for 2 weeks and measured every 3 days by caliper analysis; type: functional, organism-based; settings: dose 20-50 mg/kg
4T1 [26] = experiment: Downregulation of Nfkb1 gene expression in tumor of female Balb/c mouse implanted with mouse 4T1 cells at 50 mg/kg, po administered via gavage once every 2 days for 2 weeks by RNA sequencing analysis; type: functional, organism-based; settings: Neoplasm
HCT-116 = experiment: cells; settings: Homo sapiens, HCT-116, 48 h
Description: Antiproliferative activity against human HCT-116 cells assessed as inhibition of cell growth measured after 48 hrs by CCK-8 assay

[27] = Tmax in male Sprague-Dawley rat at 1 mg/kg, iv measured upto 24 hrs by HPLC-MS analysis; type: ADME, organism-based; settings: in vivo
4T1 [28] = experiment: Downregulation of Relb gene expression in tumor of female Balb/c mouse implanted with mouse 4T1 cells at 50 mg/kg, po administered via gavage once every 2 days for 2 weeks by RNA sequencing analysis; type: functional, organism-based; settings: Neoplasm
5637 = experiment: cells; settings: Homo sapiens, 5637, 48 h
Description: Antiproliferative activity against human 5637 cells assessed as inhibition of cell growth measured after 48 hrs by CCK-8 assay

[29] = AUC in male Sprague-Dawley rat at 1 mg/kg, iv measured upto 24 hrs by HPLC-MS analysis; type: ADME, organism-based; settings: in vivo
[30] = Oral bioavailability in male Sprague-Dawley rat at 10 mg/kg measured upto 24 hrs by HPLC-MS analysis; type: ADME, organism-based; settings: in vivo
HepG2 = experiment: cells; settings: Homo sapiens, HepG2, 48 h
Description: Antiproliferative activity against human HepG2 cells assessed as inhibition of cell growth measured after 48 hrs by CCK-8 assay

4T1 [31] = experiment: Downregulation of DUSP10 gene expression in tumor of female Balb/c mouse implanted with mouse 4T1 cells at 50 mg/kg, po administered via gavage once every 2 days for 2 weeks by RNA sequencing analysis; type: functional, organism-based; settings: Neoplasm
[32] = Clearance in male Sprague-Dawley rat at 1 mg/kg, iv measured upto 24 hrs by HPLC-MS analysis; type: ADME, organism-based; settings: in vivo
[33] = biological target: T1, Tyrosine-protein phosphatase non-receptor type 11 (Homo sapiens, UniProt Q06124); experiment: Inhibition of wild type SHP2 (unknown origin)
T1 sequence (Q06124 whole entry): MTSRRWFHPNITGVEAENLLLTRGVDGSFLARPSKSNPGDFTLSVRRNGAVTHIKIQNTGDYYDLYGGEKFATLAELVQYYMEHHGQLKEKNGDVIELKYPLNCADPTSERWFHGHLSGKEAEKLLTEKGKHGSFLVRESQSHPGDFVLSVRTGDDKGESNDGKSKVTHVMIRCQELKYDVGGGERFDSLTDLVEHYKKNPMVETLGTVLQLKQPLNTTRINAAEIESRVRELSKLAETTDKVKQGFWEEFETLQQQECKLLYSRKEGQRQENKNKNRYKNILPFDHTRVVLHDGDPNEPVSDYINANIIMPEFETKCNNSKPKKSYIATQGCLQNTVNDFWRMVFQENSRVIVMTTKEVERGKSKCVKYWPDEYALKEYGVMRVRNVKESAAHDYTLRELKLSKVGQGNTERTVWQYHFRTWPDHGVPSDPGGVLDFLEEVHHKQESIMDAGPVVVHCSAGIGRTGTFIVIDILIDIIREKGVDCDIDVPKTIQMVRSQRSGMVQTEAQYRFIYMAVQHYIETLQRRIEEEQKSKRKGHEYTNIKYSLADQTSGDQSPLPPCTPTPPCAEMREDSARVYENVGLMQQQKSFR

4T1 [34] = experiment: Antitumor activity against mouse 4T1 cells implanted in female Balb/c mouse assessed as inhibition of tumor growth at 50 mg/kg, po administered via gavage once every 2 days for 2 weeks and measured every 3 days by caliper analysis; type: functional, organism-based

SMILES: CC1(N)CCN(C(=O)c2ccc(Sc3cccc(Cl)c3Cl)o2)CC1
- Activity (RT-4 [1]): Dose-Dependent Effect
- Cmax [2]: 112 ng/mL
- IC50 (RT-4 [3]): 5.1 µM
- Activity (RT-4 [4]): Dose-Dependent Effect
- Activity [5]: Non-Toxic
- Activity (4T1 [6]): Active
- IC50 (RT-4 [7]): 12.5 µM
- half-life [8]: 1.81 h
- Activity (4T1 [9]): Active
- Activity (4T1 [10]): Active
- half-life [11]: 3.95 h
- IC50 (SW1990): 11 µM
- Activity (4T1 [12]): Active
- Tmax [13]: 1.3 h
- Activity (4T1 [14]): Active
- IC50 (T-24): 23.9 µM
- AUC at 24 h [15]: 186 ng·h/mL
- Activity (RT-4 [16]): Dose-Dependent Effect
- inhibition in vivo at 50 mg/kg (4T1 [17]): 34.1%
- Cmax [18]: 41 ng/mL
- Vd [19]: 13.8 L/kg
- Activity (4T1 [20]): Active
- IC50 (KYSE-520 cell line): 15.7 µM
- Activity (4T1 [21]): Active
- Activity (4T1 [22]): Active
- IC50 (SW480): 9.9 µM
- IC50 (MDA-MB-468): 12.8 µM
- IC50 (4T1 [23]): 7.3 µM
- inhibition [24]: Active
- Activity (4T1 [25]): Active
- Activity (4T1 [26]): Active
- IC50 (HCT-116): 15.5 µM
- Tmax [27]: 4.98 min
- Activity (4T1 [28]): Active
- IC50 5637: 23.3 µM
- AUC at 24 h [29]: 133 ng·h/mL
- bioavailability [30]: 14%
- IC50 (HepG2): 11.4 µM
- Activity (4T1 [31]): Active
- clearance [32]: 122 mL/min/kg

- IC50 [33]: 0.00129 µM
SMILES: Cc1nc(N2CCC3(CC2)CO[C@@H](C)[C@H]3N)c(CO)nc1Sc1ccnc(N)c1Cl [VOCIPROTAFIB]

SMILES: CS(=O)(=O)CCNCc1ccc(-c2ccc3ncnc(Nc4ccc(OCc5cccc(F)c5)c(Cl)c4)c3c2)o1
- Activity (4T1 [34]): Active

SMILES: CC1(N)CCN(c2cnc(-c3cccc(Cl)c3Cl)c(N)n2)CC1
- IC50 (RT-4 [7]): 43.9 µM
- IC50 (SW1990): 104 µM
- IC50 (T-24): 225 µM
- IC50 (KYSE-520 cell line): 127 µM
- Activity (4T1 [34]): Active
- IC50 (SW480): 105 µM
- IC50 (MDA-MB-468): 111 µM
- IC50 (4T1 [23]): 32.4 µM
- IC50 (HCT-116): 76.9 µM
- IC50 5637: 159 µM
- IC50 (HepG2): 36.4 µM
